Measured values from publication PMC12621175, “Scaffold Fusion and SAR Transfer with a Chemical Language Model Generates Novel Liver X Receptor Modulators” (Journal of Medicinal Chemistry, 2025).
“Also recorded” adds a separate entry of the source.

Key:
[1] = target: T1, LXRα (Homo sapiens, UniProt Q13133); test: Gal4-LXRα hybrid reporter gene assay; type: cell-based; conditions: for classification: applies to LXRa and LXRb; for LXR modulation in Gal4 hybrid reporter gene assays (mode of action): both LXR subtypes (LXRα and LXRβ)
T1 construct: coding for the hinge region, and LBD of the canonical isoform of the respective nuclear receptor; expressed in transfected cells; host or cells: HEK293T
T1 sequence (Q13133 209-447 limits assumed): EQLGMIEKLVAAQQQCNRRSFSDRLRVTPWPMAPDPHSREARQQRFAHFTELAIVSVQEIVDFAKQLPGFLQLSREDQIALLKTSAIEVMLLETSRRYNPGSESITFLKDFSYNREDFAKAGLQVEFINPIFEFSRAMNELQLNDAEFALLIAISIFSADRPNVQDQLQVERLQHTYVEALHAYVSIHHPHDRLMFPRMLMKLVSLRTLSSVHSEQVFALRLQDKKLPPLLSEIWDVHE
Procedure: The LXR-responsive reporter ABCA1-pGL3 was used for the full-length reporter gene assay.
The day before transfection, HEK293T cells were seeded in 96-well plates (4 × 10^4 cells/well). Before transfection, the medium was changed to Opti-MEM without any supplements. Transient transfection was carried out using Lipofectamine LTX reagent (Invitrogen) according to the manufacturer’s protocol with (a) pFR-Luc (Stratagene), pRL-SV40 (Promega), and the corresponding Gal4-fusion nuclear receptor plasmid or (b) the LXR-responsive reporter ABCA1-pGL3 and pRL-SV40 (Promega). […] Each concentration was tested in duplicate, and each experiment was repeated in at least three biologically independent repeats. […] Luminescence was measured with a Spark 10 M luminometer (Tecan Deutschland GmbH). Normalization of transfection efficiency and cell growth was done by division of firefly luciferase data by renilla luciferase data multiplied by 1000, resulting in relative light units (RLU). Fold activation was obtained by dividing the mean RLU of the tested compound at a respective concentration by the mean RLU of the untreated 0.1% DMSO control. […] Separate control experiments to exclude nonspecific reporter gene activation or VP16-mediated effects were performed following the same procedure in the absence of a nuclear receptor expression plasmid (pFR-Luc, pRL-SV40, and pECE-SV40-Gal4-VP16 only).

[2] = metabolic stability assay in rat liver microsomes; type: in vitro ADME; conditions: 10 μM
Procedure: The dissolved test compound (5 μL, final concentration 10 μM) was preincubated at 37 °C in 432 μL of phosphate buffer (0.1 M, pH 7.4) together with a 50 μL NADPH regenerating system (30 mM glucose-6-phosphate, 4 U/mL glucose-6-phosphate dehydrogenase, 10 mM NADP, and 30 mM MgCl2). After 5 min, the reaction was started by the addition of 13 μL of microsome mix from the liver of Sprague–Dawley rats (Invitrogen; 20 mg protein/mL in 0.1 M phosphate buffer) in a shaking water bath at 37 °C. The reaction was stopped by the addition of 500 μL of ice-cold methanol at 0, 15, 30, and 60 min. The samples were centrifuged at 5000 g for 5 min at 4 °C. The supernatants were analyzed, and the test compound was quantified by HPLC: The composition of the mobile phase is adapted tot the test compound in a range of 40-90% acetonitrile and 10-60% water (0.1% formic acid); flow rate: 1 mL/min; stationary phase: PurospherⓇ STAR, RP18, 5 μm, 125 × 4, precolumn: PurospherⓇ STAR, RP18, 5 μm, 4 × 4; detection wavelength: 254 and 280 nm; injection volume: 50 μL. […] The amounts of the test compound were quantified by an external calibration curve. Data are expressed as the mean ± SEM remaining compound from three independent experiments.

[3] = test system: LXR/retinoid X receptor (RXR) heterodimer; test: full-length LXR assay (LXR-responsive ABCA1 reporter, endogenous LXR) in HEK293T and HepG2 cells; type: cell-based; conditions: vs 0.1% DMSO
Source text: Intrigued by the initial data on LXR modulation, we further investigated the mode-of-action of designs 1-3. As the Gal4 hybrid reporter gene assay is artificial and overexpresses LXR, we next examined LXR modulation by 1-3 in a full-length LXR assay (Figure a) based on the endogenous expression of the LXR/retinoid X receptor (RXR) heterodimer (Figure S2). Upon activation, LXR binds to response elements within the ATP-binding cassette transporter A1 (ABCA1, an LXR target gene) promoter of the reporter. […] The designs were next checked for antiproliferative effects that may compromise further in vitro characterization. […] Therefore, and due to the weak efficacy of 2, we focused further biological characterization on 1 and 3.
For the hybrid reporter gene assays, the previously reported Gal4-fusion receptor plasmids pFA-CMV-hRORα-LBD, pFA-CMV-hRORβ-LBD, pFA-CMV-hRORγ-LBD, pFA-CMV-hLXRα-LBD, pFA-CMV-hLXRβ-LBD, pFA-CMV-hFXR-LBD, pFA-CMV-hPXR-LBD, and pFA-CMV-hRXRα-LBD, coding for the hinge region, and LBD of the canonical isoform of the respective nuclear receptor were used. pFR-Luc (Stratagene) was used as the reporter plasmid, and pRL-SV40 (Promega) was used in all assays for the normalization of transfection efficiency and cell growth. pECE-SV40-Gal4-VP16 was a gift from Lea Sistonen (Addgene plasmid #71728). The LXR-responsive reporter ABCA1-pGL3 was used for the full-length reporter gene assay.
The day before transfection, HEK293T cells were seeded in 96-well plates (4 × 10^4 cells/well). Before transfection, the medium was changed to Opti-MEM without any supplements. […] Luminescence was measured with a Spark 10 M luminometer (Tecan Deutschland GmbH). […] EC50/IC50 values and the standard errors thereof were calculated with the mean fold activation values by OriginPro, Version 2025 (OriginLab Corporation, Northampton, MA, USA), fitting a dose–response curve with a variable Hill slope (Levenberg–Marquardt algorithm). […]

## CCN(C(=O)c1ccccc1)c1ccc(C(O)(C(F)(F)F)C(F)(F)F)cc1 [Compound 1, N-Ethyl-N-(4-[1,1,1,3,3,3-hexafluoro-2-hydroxypropan-2-yl]phenyl)benzamide]
[1]
  classification: agonist
  LXR modulation in Gal4 hybrid reporter gene assays (mode of action): partial agonists
[1]; classification agonist, read-out: LXRa pEC50/pIC50 (converted)
  EC50: 0.562 µM
[2]
  metabolic stability: > 60 min
[3]; 3 μM
  LXR modulation in LXR-responsive ABCA1 reporter gene assay: partial LXR agonists; also recorded: partial LXR agonism

## CS(=O)(=O)c1cccc(-c2ccc(CN(Cc3cccc(C(F)(F)F)c3Cl)CC(c3ccccc3)c3ccccc3)cc2)c1 [Compound 3, N-(2-Chloro-3-[trifluoromethyl]benzyl)-N-([3′-{methylsulfonyl}-{1,1′-biphenyl}-4-yl]methyl)-2,2-diphenylethan-1-amine]
[1]
  IC50: 7.59 µM
  classification: antagonist
  LXR modulation in Gal4 hybrid reporter gene assays (mode of action): did not activate LXRs but suppressed LXR activation by the reference agonist T0901317
[2]
  metabolic stability: > 60 min
[3]; 10 μM
  LXR modulation in LXR-responsive ABCA1 reporter gene assay: robustly blocked LXR activation; also recorded: inverse agonist
